Structures can show the parent of a compound that is named as a salt. Where two headings read alike, the source gives them in different places.
Tests used:
[1] = system: Endogenous Arginine Vasopressin Antidiuretic (V2) Response; experiment: Antagonism of endogenous arginine vasopressin antidiuretic (V2) response in conscious rats (urine volume); assay type: in vivo, Sprague-Dawley rats; details: 10 mg/kg rat p.o.; urine collected for four hours after dosing; no water or food during test
Excerpt: Effects on the Antagonism of Endogenous Arginine Vasopressin Antidiuretic (V2) Response in Conscious Rats with Free Access to Water Drinking Before but not During the Experiment:
Male or female normotensive Sprague-Dawley rats (Charles River Laboratories, Inc., Kingston, NY) of 400-450 g body weight were supplied with Laboratory Rodent Feed #5001 (PMI Feeds, Inc., Richmond, IN) and water ad libitum. On the day of test, rats were placed individually into metabolic cages equipped with stainless steel screens (to separate the feces from the urine) and funnels for collection of urine. Vehicle or reference agent was given at various oral doses. During the test, rats were not provided with water or food. Urine was collected for four hours after dosing of the test compound. At the end of four hours, urine volume was measured. Urinary osmolality was determined using a Fiske One-Ten Osmometer (Fiske Associates, Norwood, MA, 02062). or an Advanced CRYOMATIC Osmometer, Model 3C2 (Advanced Instruments, Norwood, MA). Determinations of Na^+, K^+ and Cl^- ion were carried out using ion specific electrodes in a Beckman SYNCHRON EL-ISE Electrolyte System analyzer. In the following results, increased urine volume and decreased osmolality relative to AVP-control indicates activity.

[2] = molecular target: T1, Human V2 Vasopressin Receptor (Homo sapiens, UniProt P30518); experiment: Binding to membranes of mouse fibroblast cell line (LV-2) transfected with the cDNA expressing the human V2 vasopressin receptor
T1 construct: expressed in transfected cells; host or cells: mouse fibroblast cell line LV-2 (membrane preparation)
T1 sequence (P30518 whole entry): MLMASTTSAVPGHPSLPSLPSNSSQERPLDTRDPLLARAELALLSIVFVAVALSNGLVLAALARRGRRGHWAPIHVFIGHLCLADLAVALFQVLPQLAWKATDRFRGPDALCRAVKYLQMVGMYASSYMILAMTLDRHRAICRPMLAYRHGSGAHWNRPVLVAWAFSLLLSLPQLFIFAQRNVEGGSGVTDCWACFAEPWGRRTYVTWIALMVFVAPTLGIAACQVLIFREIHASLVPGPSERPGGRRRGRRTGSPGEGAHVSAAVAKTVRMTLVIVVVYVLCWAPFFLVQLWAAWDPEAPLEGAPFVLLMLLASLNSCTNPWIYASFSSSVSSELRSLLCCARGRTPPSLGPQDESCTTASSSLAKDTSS
Method: Binding to Membranes of Mouse Fibroblast Cell Line (LV-2) Transfected with the cDNA Expressing the Human V2 Vasopressin Receptor
Flasks of 175 ml capacity, containing attached cells grown to confluence, are cleared of culture medium by aspiration. The flasks containing the attached cells are rinsed with 2x5 ml of phosphate buffered saline (PBS) and the liquid aspirated off each time. Finally, 5 ml of an enzyme free dissociation Hank's based solution (Specialty Media, Inc., Lafayette, NJ) is added and the flasks are left undisturbed for 2 min. The content of all flasks is poured into a centrifuge tube and the cells pelleted at 300 x g for 15 min. […] The homogenate is centrifuged at 1500 x g for 10 min to remove ghost membranes. The supernatant fluid is centrifuged at 100,000 x g for 60 min to pellet the receptor protein. Upon completion, the pellet is resuspended in a small volume of 50.0 mM Tris.HCl buffer, pH 7.4. The protein content is determined by the Lowry method and the receptor membranes are suspended in 50.0 mM Tris.HCl buffer containing 0.1 mM phenylmethylsulfonylfluoride (PMSF) and 0.2% bovine serum albumin (BSA) to give 2.5 mg receptor protein per ml of suspension.
For binding experiments, the following is added in ml volume to wells of a 96 well format of a microtiter plate: 100.0 ml of 100.0 mM Tris.HCl buffer containing 0.2% heat inactivated BSA, 10.0 mM MgCl2 and a mixture of protease inhibitors: leupeptin, 1.0 mg %; aprotinin, 1.0 mg %; 1,10-phenanthroline, 2.0 mg %; trypsin inhibitor, 10.0 mg % and 0.1 mM PMSF, 20.0 ml of [^3H] Arginine^8, vasopressin (S.A. 75.0 Ci/mmole) at 0.8 nM and the reaction initiated by the addition of 80.0 ml of tissue membranes (200.0 mg tissue protein). The plates are left undisturbed on the bench top for 120 min to reach equilibrium. Non specific binding is assessed in the presence of 1.0 mM of unlabeled ligand, added in 20 ml volume. For test compounds, these are solubilized in 50% dimethylsulfoxide (DMSO) and added in 20.0 ml volume to a final incubation volume of […]. Upon completion of binding, the content of each well is filtered off, using a Brandel® cell Harvester (Gaithersburg, MD). The radioactivity trapped on the filter disk by the ligand-receptor complex is assessed by liquid scintillation counting in a Packard LS Counter, with an efficiency of 65% for tritium. The data are analyzed for IC50 values by the LUNDON-2 program for competition (LUNDON SOFTWARE, OH).

[3] = read-out: Vasopressin Human V2 Receptor Binding

Row | IC50 [2, 3] [nM] | SMILES | Urine Volume (ml/4 hrs) [1] [ml/4 hrs] | IC50 [2] [nM]
1 |  | Cc1ccc(F)cc1C(=O)Nc1ccc(C(=O)N2Cc3ccc(C(=O)N[N+](C)(C)C)n3Cc3ccccc32)c(Cl)c1 [Example 4, 2-[[10-[2-Chloro-4-[(5-fluoro-2-methylbenzoyl)amino]benzoyl]-10,11-dihdro-5H-pyrrolo{2,1-c][1,4]benzodiazepin-3-yl]carbonyl]-1,1,1-trimethylhydrazinium iodide] | 9.2 | 60
2 |  | O=C(Nc1ccc(C(=O)N2Cc3ccc(C(=O)N4CCC(N5CCCCC5)CC4)n3Cc3ccccc32)c(Cl)c1)c1ccccc1-c1ccccc1 [Example 11, Biphenyl-2-carboxylic acid{3-chloro-4-[3-(4-piperidinyl-piperidine-1-carbonyl)-5H,11H-pyrrolo[2,1-c][1,4]benzodiazepine-10-carbonyl]-phenyl}-amide.] |  | 9.3
3 |  | O=C(Nc1ccc(C(=O)N2Cc3ccc(C(=O)N4CCC(N5CCOCC5)CC4)n3Cc3ccccc32)c(Cl)c1)c1ccccc1-c1ccccc1 [Example 15, Biphenyl-2-carboxylic acid{3-chloro-4-[3-(4-morpholino-piperidine-1-carbonyl)-5H,11H-pyrrolo[2,1-c][1,4]benzodiazepine-10-carbonyl]-phenyl}-amide.] |  | 10.7
4 |  | CN(C)NC(=O)c1ccc2n1Cc1ccccc1N(C(=O)c1ccc(NC(=O)c3ccccc3-c3ccccc3)cc1Cl)C2 [Example 8] | 40.9 | 8.6
5 |  | Cc1ccc(F)cc1C(=O)Nc1ccc(C(=O)N2Cc3ccc(C(=O)[O-])n3Cc3ccccc32)c(Cl)c1.[K+] [Example 2, 10-[2-Chloro-4-(5-fluoro-2-methyl-benzoylamino)-benzoyl]-10,11-dihydro-5H-pyrrolo[2,1-c][1,4]benzodiazepine-3-carboxylic acid, potassium salt (1:1)] | 11.5 | 
6 |  | O=C(O)CNC(=O)c1ccc2n1Cc1ccccc1N(C(=O)c1ccc(NC(=O)c3ccccc3-c3ccccc3)cc1Cl)C2 [Example 18, 10-{4-[(Biphenyl-2-carbonyl)-amino]-2-chloro-benzoyl}-10,11-dihydro-5H-pyrrolo[2,1-c][1,4]benzodiazepine-3-carboxylic acid (glycyl)-amide] | 7.8 | 7.6
7 | 15 | Cc1ccc(F)cc1C(=O)Nc1ccc(C(=O)N2Cc3ccc(C(=O)NN(C)C)n3Cc3ccccc32)c(Cl)c1 [Example 3, N-{3-Chloro-4-[3-(N', N'-dimethyl-hydrazinocarbonyl)-5H,11H-pyrrolo[2,1-c][1,4]benzodiazepine-10-carbonyl]-phenyl}-5-fluoro-2-methyl-benzamide] | 22 | 
8 |  | CN(C)C1CCN(C(=O)c2ccc3n2Cc2ccccc2N(C(=O)c2ccc(NC(=O)c4ccccc4-c4ccccc4)cc2Cl)C3)CC1 [Example 12, Biphenyl-2-carboxylic acid{3-chloro-4-[3-(4-dimethylamino-piperidine-1-carbonyl)-5H,11H-pyrrolo[2,1-c][1,4]benzodiazepine-10-carbonyl]-phenyl}-amide.] | 21.4 | 
9 |  | O=C(Nc1ccc(C(=O)N2Cc3ccc(C(=O)O)n3Cc3ccccc32)c(Cl)c1)c1ccccc1-c1ccccc1 [Example 7, 10-{4-[(Bipheny-2-carbonyl)-amino]-2-chloro-benzoyl)-10,11-dihydro-5H-benzo[e]pyrrolo[1,2-a][1,4] diazepine-3-carboxylic acid] | 19.2 | 
10 |  | CN1CCN(NC(=O)c2ccc3n2Cc2ccccc2N(C(=O)c2ccc(NC(=O)c4ccccc4-c4ccccc4)cc2Cl)C3)CC1 [Example 13, Biphenyl-2-carboxylic acid{3-chloro-4-[3-(4-methyl-piperazine-1 aminocarbonyl)-5H,11H-pyrrolo[2,1-c][1,4]benzodiazepine-10-carbonyl]-phenyl}-amide.] | 16.8 | 
11 |  | Cc1ccc(F)cc1C(=O)Nc1ccc(C(=O)N2Cc3ccc(C(=O)[N-][N+](C)(C)C)n3Cc3ccccc32)c(Cl)c1 [Example 5, 2-[[10-[2-Chloro-4-[(5-fluoro-2-methylbenzoyl)amino]benzoyl]-10,11-dihydro-5H-pyrrolo[2,1-c][1,4]benzodiazepin-3-yl]hydroxymethylene]-1,1,1-trimethylhydrazinium inner salt] | 9.1 | 60
12 | 5.5 | CN(C)CCN(C)C(=O)c1ccc2n1Cc1ccccc1N(C(=O)c1ccc(NC(=O)c3ccccc3-c3ccccc3)cc1Cl)C2 [Example 10, 10-{4-[(Biphenyl-2-carbonyl)-amino]-2-chloro-benzoyl}-10,11-dihydro-5H-pyrrolo[2,1-c][1,4]benzodiazepine-3-carboxylic acid (2-dimethylamino-ethyl)-methyl-amide] | 22.2 | 
13 |  | CN(C)CCNC(=O)c1ccc2n1Cc1ccccc1N(C(=O)c1ccc(NC(=O)c3ccccc3-c3ccccc3)cc1Cl)C2 [Example 14, 10-{4-[(Biphenyl-2-carbonyl)-amino]-2-chloro-benzoyl}-10,11-dihydro-5H-pyrrolo[2,1-c][1,4]benzodiazepine-3-carboxylic acid (2-dimethylamino-ethyl) -amide] | 11.3 | 
14 |  | COc1cc(NC(=O)c2ccccc2-c2ccccc2)ccc1C(=O)N1Cc2ccc(C(=O)NN(C)C)n2Cc2ccccc21 [Example 17] | 9.4 | 
15 |  | COc1cc(NC(=O)c2ccccc2-c2ccccc2)ccc1C(=O)N1Cc2ccc(C(=O)N3CCN(C)CC3)n2Cc2ccccc21 [Example 16] | 24.3 | 
16 |  | O=C(Nc1ccc(C(=O)N2Cc3ccc(C(=O)C(Cl)(Cl)Cl)n3Cc3ccccc32)c(Cl)c1)c1ccccc1-c1ccccc1 [Example 6] |  | 5.6

Row | SMILES | IC50 [2, 3] [nM] | Urine Volume (ml/4 hrs) [1] [ml/4 hrs] | IC50 [2] [nM]
17 | Cc1ccc(F)cc1C(=O)Nc1ccc(C(=O)N2Cc3ccc(C(=O)O)n3Cc3ccccc32)c(Cl)c1 [Example 1, 10-[2-Chloro-4-(5-fluoro-2-methyl-benzoylamino)-benzoyl]-10,11-dihydro-5H-pyrrolo[2,1-c][1,4]benzodiazepine-3-carboxylic acid] | 14 | 13.2 | 

From patent EP1021444B1, “3-CARBOXAMIDE DERIVATIVES OF 5H-PYRROLO[2,1-c][1,4]-BENZODIAZEPINES” (Wyeth, priority 1996, dated 1998)
